How the values were obtained:
velvetleaf = assay: Test B pre-/postemergence herbicide test; assay type: in vivo, Abutilon theophrasti; conditions: for Velvetleaf plant response rating: scale 0 (no effect) to 100 (complete control)
Outline: (§1)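 Response was scored visually 13 to 15 days after treatment against untreated greenhouse controls, 0 meaning no effect and 100 complete control. Formulations (solvent mixture plus surfactant) went onto soil after planting, onto foliage of 1- to 4-leaf plants, and onto 2-leaf plants in a flooded paddy set including rice and barnyardgrass.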

[1] = tested on: small flower umbrella sedge; assay: Test B flooded paddy test; assay type: in vivo, Cyperus difformis; conditions: 1000 g ai/ha, scale 0 to 100 (0 no effect, 100 complete control)
Outline: (§2)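 Formulated test chemicals went onto postemergence plants measuring 2 to 18 cm, at one to four leaves. For the paddy assay, species had reached two leaves. Scoring took place 13–15 days later by eye, relative to untreated plants, using 0 for no effect up to 100 for full control.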

large crabgrass = assay: Test B pre-/postemergence herbicide test; assay type: in vivo, Digitaria sanguinalis; conditions: for Crabgrass, Large plant response rating: postemergence
Outline: as §1

wild oat = assay: Test B postemergence herbicide test; assay type: in vivo, Avena fatua; conditions: scale 0 (no effect) to 100 (complete control)
Outline: (§3)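 After treating 2-leaf paddy plants or 2–18 cm postemergence plants (1 to 4 leaves) with formulated chemical, researchers kept them in a greenhouse for 13–15 days. Effects were judged visually versus controls: 0 indicates none, 100 total control.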

corn = assay: Test B pre-/postemergence herbicide test; assay type: in vivo, Zea mays; conditions: for Corn plant response rating: postemergence
Outline: as §1

blackgrass = assay: Test B postemergence herbicide test; assay type: in vivo, Alopecurus myosuroides; conditions: postemergence
Outline: as §2

wheat = assay: Test B postemergence herbicide test; assay type: in vivo, Triticum aestivum; set-up: key to Wheat plant response rating: 0 = no effect, 100 = complete control
Outline: as §3

morningglory = assay: Test B pre-/postemergence herbicide test; assay type: in vivo, Ipomoea coccinea; conditions: for Morningglory plant response rating: scale 0 (no effect) to 100 (complete control)
Outline: (§4)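 Plants compared with untreated controls 13–15 days post-treatment and given a visual 0–100 injury score. Applications: preemergence to seeds; postemergence at 1- to 4-leaf (2–18 cm); paddy species flooded, 2-leaf stage. Vehicle non-phytotoxic, surfactant included.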

giant foxtail = assay: Test B pre-/postemergence herbicide test; assay type: in vivo, Setaria faberi; conditions: for Foxtail, Giant plant response rating: postemergence
Outline: as §1

lambsquarters = assay: Test B pre-/postemergence herbicide test; assay type: in vivo, Chenopodium album; conditions: for Lambsquarters plant response rating: scale 0 (no effect) to 100 (complete control)
Outline: as §1

pigweed = assay: Test B pre-/postemergence herbicide test; assay type: in vivo, Amaranthus retroflexus; conditions: for Pigweed plant response rating: scale 0 (no effect) to 100 (complete control)
Outline: as §1

barnyardgrass = assay: Test B pre-/postemergence herbicide test; assay type: in vivo, Echinochloa crus-galli; conditions: for Barnyardgrass plant response rating: postemergence
Outline: as §4

cocklebur = assay: Test B pre-/postemergence herbicide test; assay type: in vivo, Xanthium strumarium; conditions: for Cocklebur plant response rating: postemergence
Outline: as §4

Surinam grass = assay: Test B pre-/postemergence herbicide test; assay type: in vivo, Urochloa decumbens; conditions: for Surinam Grass plant response rating: scale 0 (no effect) to 100 (complete control)
Outline: as §1

[2] = 125 g ai/ha, 0 is no effect, 100 is complete control, preemergence
[3] = 125 g ai/ha, visual rating, postemergence
[4] = 125 g ai/ha, visual rating, scale 0 (no effect) to 100 (complete control)
[5] = 500 g ai/ha, scale 0 to 100, 0 is no effect, 100 is complete control

Structure (SMILES): C=CCNC(=O)c1cccc(NC(=O)c2nn(C(C)C)nc2CC)c1 [Compound 382]
- Plant response rating (0 to 100 scale), Velvetleaf (velvetleaf; [2]): 10
- Velvetleaf plant response rating (velvetleaf; [3]): 10
- Velvetleaf plant response rating (velvetleaf; Postemergence, 500 g ai/ha): 20
- Sedge, Umbrella plant response rating [1]: 70
- Plant response rating (0 to 100 scale), Crabgrass, Large (large crabgrass; [2]): 80
- Crabgrass, Large plant response rating (large crabgrass; [4]): 10
- Crabgrass, Large plant response rating (large crabgrass; [5]): 10
- Oat, Wild plant response rating (wild oat; [3]): 10
- Oat, Wild plant response rating (wild oat; Postemergence, 500 g ai/ha): 20
- Plant response rating (0 to 100 scale), Corn (corn; [2]): 0
- Corn plant response rating (corn; [4]): 0
- Corn plant response rating (corn; [5]): 0
- Blackgrass plant response rating (blackgrass; [4]): 10
- Blackgrass plant response rating (blackgrass; [5]): 30
- Wheat plant response rating (wheat; 125 g ai/ha, visual rating, scale 0 (no effect) to 100 (complete control), postemergence): 0
- Wheat plant response rating (wheat; 500 g ai/ha, scale 0 to 100, 0 no effect, 100 complete control, preemergence): 80
- Wheat plant response rating (wheat; Postemergence, 500 g ai/ha, scale 0 (no effect) to 100 (complete control)): 10
- Plant response rating (0 to 100 scale), Morningglory (morningglory; [2]): 10
- Morningglory plant response rating (morningglory; [3]): 20
- Morningglory plant response rating (morningglory; Postemergence, 500 g ai/ha): 60
- Plant response rating (0 to 100 scale), Foxtail, Giant (giant foxtail; [2]): 80
- Foxtail, Giant plant response rating (giant foxtail; [4]): 0
- Foxtail, Giant plant response rating (giant foxtail; [5]): 10
- Plant response rating (0 to 100 scale), Lambsquarters (lambsquarters; [2]): 100
- Lambsquarters plant response rating (lambsquarters; [3]): 50
- Lambsquarters plant response rating (lambsquarters; Postemergence, 500 g ai/ha): 70
- Plant response rating (0 to 100 scale), Pigweed (pigweed; [2]): 50
- Pigweed plant response rating (pigweed; [3]): 30
- Pigweed plant response rating (pigweed; Postemergence, 500 g ai/ha): 40
- Plant response rating (0 to 100 scale), Barnyardgrass (barnyardgrass; [2]): 80
- Barnyardgrass plant response rating (barnyardgrass; [4]): 0
- Barnyardgrass plant response rating (barnyardgrass; [5]): 0
- Plant response rating (0 to 100 scale), Cocklebur (cocklebur; [2]): 0
- Cocklebur plant response rating (cocklebur; [4]): 10
- Cocklebur plant response rating (cocklebur; [5]): 10
- Plant response rating (0 to 100 scale), Surinam Grass (Surinam grass; [2]): 50
- Surinam Grass plant response rating (Surinam grass; [3]): 10
- Surinam Grass plant response rating (Surinam grass; Postemergence, 500 g ai/ha): 10
